Experiment [1] deals with Raf-RBD/KRAS G12D interaction (Homo sapiens (Human), UniProt P01116, G12D). As to the kind of experiment: KRAS G12D NanoBRET assay. The format is cell-based. The following applies: HCT116. As to the method: KRAS G12D NanoBRET Assay. Cellular target engagement was assessed by monitoring inhibition of the Raf-RBD/KRAS G12D interaction in a NanoBRET™ assay (Promega). […] Cells were seeded into 384-well white tissue culture-treated assay plates in 40 μL culture medium (RPMI-1640 with 10% fetal bovine serum, 2 mM glutamine, […] puromycin, and 4 ng/mL blasticidin) with doxycycline to induce KRAS G12D-nanoluciferase expression over 20-24 h at 37° C., 5% CO2. The culture medium was then removed and replaced with assay medium (Opti-MEM® with 4% fetal bovine serum) and 0.1 μM HaloTag618 ligand. During the subsequent 4 h incubation at 37° C., 5% CO2, the HaloTag618 ligand binds to the Halotag-labeled KRAS G12D. Compounds solubilized in DMSO were then added as dilution series to the wells in a total volume of 160 nL (0.4% DMSO final), and the plates were incubated overnight at 37° C., 5% CO2. In the final step, 10 μL NanoGlo substrate in Opti-MEM was added to each well, and the emission read at 460 nm (luciferase signal) and 610 nm (NanoBRET signal) on an EnVision plate reader (PerkinElmer). The Raf-RBD/KRAS G12D interaction results in bioluminescence resonance energy transfer (BRET) from the product of the luciferase reaction in the vicinity of the Raf-RBD to the HaloTag ligand acceptor on the KRAS G12D and generates the NanoBRET signal. Binding of compounds to KRAS G12D and disruption of its interaction with Raf-RBD results in reduction of this signal. The luciferase signal and NanoBRET signal for compound wells were divided by the average corresponding signal for DMSO control wells. Then the NanoBRET ratio was calculated by dividing the control-adjusted NanoBRET signal by the similarly adjusted luciferase signal. […] The normalized NanoBRET ratio results were plotted against compound concentration, and the data fit to a 4-parameter Hill equation to determine the IC50 values.
Sequence of Raf-RBD/KRAS G12D interaction (P01116-2 other isoform, or with tags, fused parts or gaps G12D): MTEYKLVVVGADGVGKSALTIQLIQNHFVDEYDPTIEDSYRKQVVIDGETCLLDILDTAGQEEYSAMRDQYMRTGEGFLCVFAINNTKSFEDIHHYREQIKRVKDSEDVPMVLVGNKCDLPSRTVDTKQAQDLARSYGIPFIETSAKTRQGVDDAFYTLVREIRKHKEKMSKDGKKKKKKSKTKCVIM
For orientation: In BRET a luciferase serves as donor, and the signal depends on an acceptor being close.

Experiment [2] concerns the target KRAS G12D (Homo sapiens (Human), UniProt P01116, G12D). Description: KRas (G12D) GDP HTRF (BODIPY-GDP exchange TR-FRET). The class given is biochemical. The procedure:
(§1) KRAS Biochemical Assay—BODIPY-GDP Exchange TR-FRET. Biochemical compound potencies were assessed by evaluating inhibition of SOS1-mediated nucleotide exchange in KRAS G12D. The SOS1-promoted exchange of fluorescently-labeled GDP (BODIPY-GDP) was monitored by time-resolved fluorescence resonance energy transfer (TR-FRET). Compounds solubilized in DMSO were dispensed as concentration series into 384-well white assay plates. A preformed complex of biotin-tagged recombinant human KRAS (1.5 nM mutant G12D or wild type) and 0.15 nM terbium-labeled streptavidin (CisBIO) prepared in 10 μL/well assay buffer (20 mM HEPES, pH 7.5, 50 mM NaCl, 10 mM MgCl2, 0.01% Tween-20 and 1 mM dithiothreitol) was added and allowed to incubate for 10-minutes. The reaction was initiated with the addition of 5 μL of 3 nM recombinant human SOS1 and 300 nM BODIPY-GDP in assay buffer. After a 60-minute incubation, the fluorescence was measured with excitation at 337 nm and emission at 490 and 520 nm. The TR-FRET ratio was determined as the fluorescence at 520 nm divided by the fluorescence at 490 nm multiplied by 10,000. […] The normalized TR-FRET results were plotted against compound concentration, and the data fit to a 4-parameter Hill equation to determine the IC50 values.
For orientation: Time-resolved FRET reads energy transfer from a long-lived donor to a nearby acceptor.

Experiment [3] has as its target KRAS wild type (Homo sapiens (Human), UniProt P01116). As to the kind of experiment: KRas (wt) GDP HTRF (BODIPY-GDP exchange TR-FRET). The format is biochemical. As to the method:
as §1

In experiment [4] the test system is PC-9 cells. Description: PC9 proliferation assay. The class given is cell-based, human. The following applies: read-out: PC9 Prolif IC50 (G12V).
Experiment [5] has as its target KRas(G12V) (Homo sapiens (Human), UniProt P01116, G12V). Description: KRas(G12V) GDP HTRF (BODIPY-GDP exchange TR-FRET). The format is biochemical.
The target in experiment [6] is KRas (Homo sapiens (Human), UniProt P01116). Description: KRas GDP HTRF (BODIPY-GDP exchange TR-FRET). The class given is biochemical. In outline: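 Inhibition of SOS1-mediated exchange of BODIPY-GDP on KRAS G12D, started with 3 nM recombinant human SOS1 and 300 nM BODIPY-GDP and read after 60 min. TR-FRET excitation 337 nm, ratio 520/490 nm ×10,000. IC50 from 4-parameter Hill fit of normalized data.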
Sequence of KRas (P01116-2 other isoform, or with tags, fused parts or gaps): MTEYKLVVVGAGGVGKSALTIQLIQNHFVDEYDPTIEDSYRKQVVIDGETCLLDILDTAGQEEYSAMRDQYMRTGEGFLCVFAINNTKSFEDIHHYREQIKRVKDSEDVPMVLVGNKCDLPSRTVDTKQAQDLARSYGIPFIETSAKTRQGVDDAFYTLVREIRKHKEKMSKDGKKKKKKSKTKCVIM

Experiment [7] deals with SW480 cells. Description: SW480 proliferation assay. The format is cell-based. The following applies: read-out: SW480 Prolif IC50 (G12V).

Where two headings read alike, the source gives them in different places. A value given as a limit tells only on which side of the number the result lay.

These results are taken from patent US20240383915A1, “OXAZEPINE COMPOUNDS AND USES THEREOF IN THE TREATMENT OF CANCER” (Genentech, Inc., priority 2021, published 2024).

One may read the IC50 as the concentration at which inhibition is half-maximal.

Sequence of KRAS wild type (P01116-2 other isoform, or with tags, fused parts or gaps): as above
Sequence of KRAS G12D (P01116-2 other isoform, or with tags, fused parts or gaps G12D): as the sequence (P01116-2 other isoform, or with tags, fused parts or gaps G12D) above
Sequence of KRas(G12V) (P01116-2 other isoform, or with tags, fused parts or gaps G12V): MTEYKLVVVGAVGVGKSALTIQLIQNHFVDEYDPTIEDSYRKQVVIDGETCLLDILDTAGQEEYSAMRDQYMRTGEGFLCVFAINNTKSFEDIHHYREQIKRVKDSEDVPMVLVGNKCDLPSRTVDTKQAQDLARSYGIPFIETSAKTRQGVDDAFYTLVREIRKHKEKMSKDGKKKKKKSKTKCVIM

Turning to `C=C1CN2CCC[C@@]2(COc2nc3c4c(c(F)c(-c5nc(N)cc(C)c5C(F)(F)F)c(F)c4n2)OCCN3CCN(C)C)C1` (single isomer, unassigned) [Example 524], the half-maximal inhibitory concentration (IC50) in experiment [1] was at least 10000 nM; in experiment [2], 480 nM; in experiment [3] it was 2680 nM.
`C=C1CN2CCC[C@@]2(COc2nc3c4c(c(Cl)c(-c5nc(N)cc(C)c5C(F)(F)F)c(F)c4n2)OCCN3C2CCNC2)C1` (stereo partly shown) [Example 515]: the IC50 in experiment [2] was determined as 3.39 nM; in experiment [3] it was 20 nM.
For `C=C1CN2CCC[C@@]2(COc2nc3c4c(c(Cl)c(-c5c(F)ccc6cnn(C)c56)cc4n2)OCCN3CCN(C)C)C1` [Example 512] the same measures were 174 nM and 1110 nM.
As to `C=C1CN2CCC[C@@]2(COc2nc3c4c(c(Cl)c(-c5nc(N)cc(C)c5C(F)(F)F)c(F)c4n2)OCCN3C2CCNC2)C1` (stereo partly shown) [Example 518], the IC50 was determined as 29 nM in experiment [2] and 128 nM in experiment [3].
Turning to `Cc1cc(N)nc(-c2c(Cl)c3c4c(nc(OCCF)nc4c2F)N([C@H](C)c2cccnc2N)CCO3)c1C(F)(F)F` (atropisomer, axis not shown) [Example 151, 6-((R)-4-((R)-1-(2-aminopyridin-3-yl)ethyl)-8-chloro-10-fluoro-2-(2-fluoroethoxy)-5,6-dihydro-4H-[1,4]oxazepino[5,6,7-de]quinazolin-9-yl)-4-methyl-5-(trifluoromethyl)pyridin-2-amine], the IC50 turned out to be 14000 nM in experiment [4] (Homo sapiens, PC-9, PC9); 1.1 nM in experiment [5]; 5.4 nM in experiment [6]; 700 nM in experiment [7] (Homo sapiens, SW480, SW480).
On the same counts, the results for `Nc1ncccc1CN1CCOc2c(Cl)c(-c3cccc4ccccc34)cc3nc(OC[C@@]45CCCN4C[C@H](F)C5)nc1c23` [Example 62, 3-((8-chloro-2-(((2R,7aS)-2-fluorotetrahydro-1H-pyrrolizin-7a(5H)-yl)methoxy)-9-(naphthalen-1-yl)-5,6-dihydro-4H-[1,4]oxazepino[5,6,7-de]quinazolin-4-yl)methyl)pyridin-2-amine] are 3400 nM, 12 nM, 96 nM and 4900 nM.
Turning to `Cc1cc(N)nc(-c2cc3nc(OC[C@@]45CCCN4C[C@H](F)C5)nc4c3c(c2Cl)OCCN4Cc2cccnc2N)c1C(F)(F)F` [Example 60, 6-(4-((2-aminopyridin-3-yl)methyl)-8-chloro-2-(((2R,7aS)-2-fluorotetrahydro-1H-pyrrolizin-7a(5H)-yl)methoxy)-5,6-dihydro-4H-[1,4]oxazepino[5,6,7-de]quinazolin-9-yl)-4-methyl-5-(trifluoromethyl)pyridin-2-amine], the IC50 in experiment [4] (Homo sapiens, PC-9, PC9) amounted to 2700 nM; in experiment [5], 0.42 nM; in experiment [6], 0.48 nM; in experiment [7] (Homo sapiens, SW480, SW480), 230 nM.
`Cc1cc(N)nc(-c2c(Cl)c3c4c(nc(OC[C@@]56CCCN5C[C@H](F)C6)nc4c2F)N([C@H](C)c2cccnc2N)CCO3)c1C(F)(F)F` (atropisomer, axis not shown; (aS)) [Example 107, (S)-6-(4-((R)-1-(2-aminopyridin-3-yl)ethyl)-8-chloro-10-fluoro-2-(((2R,7aS)-2-fluorotetrahydro-1H-pyrrolizin-7a(5H)-yl)methoxy)-5,6-dihydro-4H-[1,4]oxazepino[5,6,7-de]quinazolin-9-yl)-4-methyl-5-(trifluoromethyl)pyridin-2-amine]: the IC50 in experiment [4] (PC9) was found to be 4000 nM; in experiment [5], 90 nM; in experiment [6], 240 nM; in experiment [7] (SW480), 560 nM.
`C=C1CN2CCC[C@@]2(COc2nc3c4c(c(Cl)c(-c5nc(N)cc(C)c5C(F)(F)F)cc4n2)OCCN3C)C1` [Example 44, (S)-6-(8-chloro-4-methyl-2-((2-methylenetetrahydro-1H-pyrrolizin-7a(5H)-yl)methoxy)-5,6-dihydro-4H-[1,4]oxazepino[5,6,7-de]quinazolin-9-yl)-4-methyl-5-(trifluoromethyl)pyridin-2-amine]: the half-inhibitory concentration (IC50) turned out to be 4800 nM in experiment [4] (Homo sapiens, PC-9, PC9); 2.7 nM in experiment [5]; 17 nM in experiment [6]; 4100 nM in experiment [7] (Homo sapiens, SW480, SW480).
As for `Nc1ncccc1CN1CCOc2c(Cl)c(-c3cccc4c3CCC4)cc3nc(OC[C@@]45CCCN4C[C@H](F)C5)nc1c23` [Example 63, 3-((8-chloro-9-(2,3-dihydro-1H-inden-4-yl)-2-(((2R,7aS)-2-fluorotetrahydro-1H-pyrrolizin-7a(5H)-yl)methoxy)-5,6-dihydro-4H-[1,4]oxazepino[5,6,7-de]quinazolin-4-yl)methyl)pyridin-2-amine], the IC50 in experiment [4] (Homo sapiens, PC-9, PC9) amounted to 4000 nM; in experiment [5], 8.7 nM; in experiment [6], 69 nM; in experiment [7] (Homo sapiens, SW480, SW480) it was 3300 nM.
For `C[C@H](c1cccnc1N)N1CCOc2c(Cl)c(-c3nc(N)ccc3C(F)(F)F)c(F)c3nc(OC[C@@]45CCCN4C[C@H](F)C5)nc1c23` (atropisomer, axis not shown; (aS)) [Example 108a, 6-((R)-4-((R)-1-(2-aminopyridin-3-yl)ethyl)-8-chloro-10-fluoro-2-(((2R,7aS)-2-fluorotetrahydro-1H-pyrrolizin-7a(5H)-yl)methoxy)-5,6-dihydro-4H-[1,4]oxazepino[5,6,7-de]quinazolin-9-yl)-5-(trifluoromethyl)pyridin-2-amine] the same measures were 1400 nM, 0.06 nM, 0.2 nM and 2 nM.
Turning to `Cc1cc(N)nc(-c2c(Cl)c3c4c(nc(OCCn5cccn5)nc4c2F)N([C@H](C)c2cccnc2N)CCO3)c1C(F)(F)F` (atropisomer, axis not shown) [Example 136, 6-((R)-2-(2-(1H-pyrazol-1-yl)ethoxy)-4-((R)-1-(2-aminopyridin-3-yl)ethyl)-8-chloro-10-fluoro-5,6-dihydro-4H-[1,4]oxazepino[5,6,7-de]quinazolin-9-yl)-4-methyl-5-(trifluoromethyl)pyridin-2-amine], the IC50 was determined as 8600 nM in experiment [4] (Homo sapiens, PC-9, PC9); 0.21 nM in experiment [5]; 0.83 nM in experiment [6]; 63 nM in experiment [7] (Homo sapiens, SW480, SW480).
On the same counts, the results for `Cc1cc(N)c(F)c(-c2c(Cl)c3c4c(nc(OC[C@@]56CCCN5C[C@H](F)C6)nc4c2F)N([C@H](C)c2cccnc2N)CCO3)c1I` (single isomer, unassigned) [Example 74a] are 2900 nM, 0.09 nM, 0.21 nM and 6 nM.
For `Cc1cc(N)nc(-c2c(Cl)c3c4c(nc(OC[C@@]56CCCN5C[C@H](F)C6)nc4c2F)N([C@@H](c2cccnc2N)C2CC2)CCO3)c1C(F)(F)F` (atropisomer, axis not shown; (aS)) [Example 86, 6-((R)-4-((R)-(2-aminopyridin-3-yl)(cyclopropyl)methyl)-8-chloro-10-fluoro-2-(((2R,7aS)-2-fluorotetrahydro-1H-pyrrolizin-7a(5H)-yl)methoxy)-5,6-dihydro-4H-[1,4]oxazepino[5,6,7-de]quinazolin-9-yl)-4-methyl-5-(trifluoromethyl)pyridin-2-amine] the same measures were 3700 nM, 0.15 nM, 0.44 nM and 4.9 nM.
